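Method: 48-hour compound exposure of cells in 96-well plates, five concentrations, linear interpolation of endpoints. Abbreviation: GI50, concentration required for 50% inhibition of growth. TGI: total growth inhibition.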
Experiments:
Assay in all cases: NCI tumour cell line growth inhibition, 48 h
SNB-19 CNS = system: SNB-19 CNS
SK-MEL-2 melanoma = system: SK-MEL-2 melanoma
SF-295 CNS = system: SF-295 CNS
CAKI-1 renal = system: CAKI-1 renal
IGROV1 ovarian = system: IGROV1 ovarian
HOP-92 NSCLC = system: HOP-92 NSCLC
MALME-3M melanoma = system: MALME-3M melanoma
NCI-H226 lung = system: NCI-H226 lung
MDA-MB-435 = system: MDA-MB-435
MCF7 breast = system: MCF7 breast

Structure (SMILES)	TGI (SNB-19 CNS) [µM]	TGI (SK-MEL-2 melanoma) [µM]	TGI (SF-295 CNS) [µM]	TGI (CAKI-1 renal) [µM]	TGI (IGROV1 ovarian) [µM]	TGI (HOP-92 NSCLC) [µM]	TGI (MALME-3M melanoma) [µM]	TGI (NCI-H226 lung) [µM]	TGI (MDA-MB-435) [µM]	TGI (MCF7 breast) [µM]	GI50 (CAKI-1 renal) [µM]	GI50 (SNB-19 CNS) [µM]	GI50 (SK-MEL-2 melanoma) [µM]	GI50 (MDA-MB-435) [µM]	GI50 (SF-295 CNS) [µM]	GI50 (MCF7 breast) [µM]	GI50 (IGROV1 ovarian) [µM]	GI50 (HOP-92 NSCLC) [µM]	GI50 (NCI-H226 lung) [µM]	GI50 (MALME-3M melanoma) [µM]
O=C1C(=O)N(c2ccc(Cl)cc2Cl)C(=O)C(=O)C1c1nc2ccccc2o1	> 100	> 100	> 100	> 100	> 100	> 100	> 100	> 100	–	–	–	–	–	–	–	–	–	–	–	–
COc1ccc(/C=C\c2cc(OC)c(OC)c(OC)c2)cc1OC(=O)CCC(=O)O	> 100	> 100	67.7	> 100	> 100	–	–	< 0.0001	< 0.0001	> 100	< 0.0001	–	–	–	–	–	–	–	–	–
CC(=O)CCCCO	> 100	> 100	> 100	> 100	> 100	> 100	> 100	–	–	–	–	–	–	–	–	–	–	–	–	–
COc1cccc(Cc2c3cc(OC)ccc3cc[n+]2C)c1	> 100	> 100	> 100	> 100	–	–	> 100	–	–	–	–	–	–	–	–	–	–	–	–	–
CC(=O)OC1CC2(O)C3CCC4CC(O)CCC4(C)C3CCC2(C)C1C1=CC(=O)OC1 (stereo not drawn)	1.25	0.505	0.222	0.13	1.77	19.3	0.111	0.784	0.357	–	–	–	–	–	–	–	–	–	–	–
COc1ccccc1NC(=O)C1=C(C)NC(C)=C(C(=O)Nc2ccccc2OC)C1c1ccc(C)cc1	> 100	> 100	> 100	> 100	> 100	> 100	> 100	> 100	–	–	–	–	–	–	–	–	–	–	–	–
C=C(c1ccc(C(=O)N(C)c2ccccc2N)cc1)C(C)N1C(=O)[C@H]2CCCN2C(=O)c2ccccc21 (stereo partly drawn)	> 100	> 100	> 100	> 100	> 100	> 100	–	> 100	> 100	> 100	32.8	> 100	99.5	38.3	> 100	23.2	69.5	37.2	63.4	–
CCOC(=O)C1SC(=Nc2ccc(Cl)c(Cl)c2)N=C1C (stereo not drawn)	> 100	> 100	> 100	> 100	> 100	–	> 100	67.7	–	–	–	–	–	–	–	–	–	–	–	–
CCSC1=C(C)N(C=NC(C)(C)C)CC1	> 100	> 100	> 100	> 100	> 100	> 100	> 100	> 100	–	–	–	–	–	–	–	–	–	–	–	–
Cc1ccc(-c2cc(C3=CC(=O)C=CC3=O)n(-c3ccc(S(N)(=O)=O)cc3)n2)cc1	> 100	> 100	> 100	> 100	> 100	> 100	–	> 100	> 100	> 100	52.3	63.7	> 100	59.4	> 100	53.1	> 100	35.6	54	–
CN(C)C(=O)c1cc2cnc(Nc3ccc(-c4csc5c(=O)cc(N6CCOCC6)oc45)cc3)nc2n1C1CCCC1	> 28.5	0.679	1.14	1.15	–	41.9	–	2.04	1.89	1.01	0.152	0.217	0.236	0.196	0.242	0.0881	–	0.0541	0.229	–
NC(N)=NNC(=O)CCCCCCCC(=O)NN=C(N)N	> 100	> 100	> 100	> 100	> 100	–	> 100	–	–	–	–	–	–	–	–	–	–	–	–	–
O=C(CC(=O)N1N=C(N2c3ccccc3Sc3ccccc32)CC1c1ccccc1)Nc1ccc(Cl)cc1 (stereo not drawn)	> 100	–	> 100	> 100	> 100	> 100	> 100	–	–	–	–	–	–	–	–	–	–	–	–	–
O=C(N/N=C/c1ccccc1O)C(=O)Nc1ccc(F)cc1	> 100	> 100	15.5	22	> 100	–	82.7	> 100	> 100	> 100	2.24	4.91	22.9	8.4	1.81	3.52	4.29	–	16	10.7
CCCCCCCCCCCCSC(=N)N	45.7	36.2	5.55	14.4	–	–	29.5	44.5	15.3	15.5	3.79	15.7	19.5	3.9	2.35	3.44	2.77	–	18.5	15
C=CCC(N[C@H](CO)c1ccccc1)c1cn(C(=O)OCC)c2ccccc12 (stereo partly drawn)	66.9	42	29.3	26.9	26.3	35.7	–	31	33.4	> 100	12.4	22.3	18.4	18	15.4	35.2	8.46	18	15.2	–
Nc1c(C(=O)Nc2ccccc2)[n+]([O-])c2ccccc2[n+]1[O-]	31	33.5	41.1	16.8	44.8	32.1	–	76.3	–	–	–	–	–	–	–	–	–	–	–	–
CCN(CCCl)CCCNc1c2ccccc2nc2ccc(OC)cc12	–	–	–	–	1510	–	–	–	–	–	133	205	587	–	308	–	–	180	580	754
CC(C)(C)C(=O)ON1N=NC2C3CC(OCc4ccccc4)(OCc4ccccc4)C(O3)C21 (stereo not drawn)	–	34.3	52.9	> 100	> 100	27.2	31.2	40	–	–	–	–	–	–	–	–	–	–	–	–
C#Cc1c(C(N)=O)ncn1C1OC(COP(=O)(OCc2ccc([N+](=O)[O-])o2)N(C)CCCCCl)C(O)C1O (stereo not drawn)	> 100	> 100	> 100	> 100	> 100	> 100	–	> 100	> 100	> 100	47.9	51.7	89.9	46.2	31.2	20.1	4.59	51.2	> 100	–

Reference: PubChem BioAssay (NCI)
